# Assay results published in patent EP1022029A1, “NOOTROPIC AGENT” (priority 1997, dated 1999).
# Read-outs that look alike come from different tables or passages of the source.
# Experiments:
# Type in all cases: cell-based
# normal ACh receptors = target: T1, normal ACh receptors (Tetronarce californica, UniProt P02710+P02712+P02714+P02718); experiment: Calcium permeability of normal ACh receptors in oocytes loaded with Calcium Green; settings: normal solution + nefiracetam (1μM); ACh 100 µM; mean ± SD, n=7
# T1 construct: expressed in transfected cells; host or cells: Xenopus oocytes
# Description: An oocyte expressing normal ACh receptors was loaded with Calcium Green. Intracellular calcium ([Ca^2+]i) and evoked currents (IA) were recorded for each of the cases in which administration of ACh (100 µM) was carried out in a Ca^2+-free (extCa^2+(-)) extracellular solution or in an ordinary extracellular solution (Calcium Green TM-1 (Molecular Probes, Inc. USA) was injected to the oocytes). The Ca^2+ rise was normalized by Δ increase (δI) of intensity/base intensity/current amplitude (µA) obtained with calcium-free media.
# In Table 15, each value represents the average from seven oocytes (SD; standard deviation). ACh-evoked currents in the Xenopus oocytes expression system are composed of acetylcholine-gated channel currents and calcium-dependent chloride currents. Nefiracetam had no effect on calcium permeability through the nACh receptor channel. (Table 15). The results from Examples 6a and 6b indicate that nefiracetam modulated acetylcholine-gated channel currents but not calcium-sensitive chloride (Cl^-) currents.
# [1] = tested on: calcium-dependent chloride currents; experiment: Calcium-dependent chloride currents in Xenopus oocytes
# Description: In atropine-free frog Ringer's solution, acetylcholine (Ach) (100 µM) was administered to an oocyte that had not expressed ACh receptors. The holding voltage was -30 mV.
# In Xenopus oocyte expression systems, ACh-evoked currents are known to be composed of ACh-gated channel currents and calcium-dependent chloride currents (R. Miledi et al., J. Physiol. 357, 173, 1984). Nefiracetam, however, had no effect on calcium-dependent chloride currents induced by stimulation from the endogenous muscarinic ACh receptors (FIG. 2).
# [2] = tested on: postsynaptic potential of a slice of the rat hippocampus; experiment: Paired-pulse facilitation of the postsynaptic potential in hippocampal slices; settings: nefiracetam-administered slices; interpulse intervals 50 to 150 msec
# Description: Paired pulses were applied to slices at varying interpulse intervals, between 50 and 150 msec before and 10 minute after the administration of nefiracetam. […] Briefly, reaction induced by the first pulse application was potentiated to a maximum of 120% by the next pulse application. However, the pulses were consistently lower than those obtained with slices that had not been administered nefiracetam (Table 6); therefore, nefiracetam is considered to maximally enhance release of glutamate serving as an excitatory neurotransmitter.
# [3] = tested on: mutant ACh receptors lacking potent PKC phosphorylation sites on the α and δ subunits (mαΔPKC/Ser333m δΔPKC/Ser377); experiment: ACh-evoked currents in mutant ACh receptors lacking PKC phosphorylation sites expressed in Xenopus oocytes; settings: nefiracetam 1 µM
# α4β2 receptor = target: T2, α4β2 receptor (Rattus norvegicus, UniProt P09483+P12390); experiment: ACh-evoked currents in α4β2 receptors expressed in Xenopus oocytes (two-electrode voltage clamp); settings: for normalized response (%): nef(+), n=5
# T2 construct: expressed in transfected cells; host or cells: Xenopus oocytes injected with in vitro transcribed mRNA
# Description: Two-electrode voltage-clamp technique was used to record expression α4β2 or α7 receptors in oocytes. ACh (100 µM) was applied to a single oocyte in the presence or absence of α-BuTX (50 nM) or MCA (3 µM). The holding voltage was -30 or -60 mV for α4β2-nAChR or α7-nAChR, respectively. Downward directions correspond to inward currents.
# mRNAs for the rat α4β2 receptor and α7 receptor, GLUR1, 2, 3 receptors, and NP152 and NP153 were constructed as described previously. Xenopus oocytes were manually separated from the ovary, and subjected to treatment with collagenase (0.5 mg/ml). Thereafter, the treated oocytes were incubated overnight in Barth's solution (in mM, 88 NaCl, 1 KCl, 2.4 NaHCO3, 0.82 MgSO4, 0.33 […], 0.41 CaCl2, and 7.5 Tris; pH 7.6). The oocytes were injected with the α4β2 or α7 receptor mRNA and incubated at 18°C. In some cases, NP152 and NP153 were co-expressed with the α4β2 and α7 receptors. The injected oocytes were incubated and transferred to a recording chamber 2-7 days after incubation and continuously superfused at room temperature (20-22°C) with a standard frog Ringer's solution [in mM: 115 NaCl, 2 KCl, 1.8 CaCl2, 5 HEPES; pH 7.0]. To remove the effect of endogenous muscarinic ACh receptor, 1 µM atropine was added to the extracellular solution. ACh-evoked currents were recorded by use of two-electrode voltage clamp techniques and an amplifier (GeneClamp-500, Axon Instrument, Inc. USA). The currents were analyzed on a microcomputer by pClamp software (Axon Instrument, Inc.; Version 6). From the results, an assessment was made as to whether nefiracetam actually acts on the nACh receptors.
# T2 sequence (P09483 31-630): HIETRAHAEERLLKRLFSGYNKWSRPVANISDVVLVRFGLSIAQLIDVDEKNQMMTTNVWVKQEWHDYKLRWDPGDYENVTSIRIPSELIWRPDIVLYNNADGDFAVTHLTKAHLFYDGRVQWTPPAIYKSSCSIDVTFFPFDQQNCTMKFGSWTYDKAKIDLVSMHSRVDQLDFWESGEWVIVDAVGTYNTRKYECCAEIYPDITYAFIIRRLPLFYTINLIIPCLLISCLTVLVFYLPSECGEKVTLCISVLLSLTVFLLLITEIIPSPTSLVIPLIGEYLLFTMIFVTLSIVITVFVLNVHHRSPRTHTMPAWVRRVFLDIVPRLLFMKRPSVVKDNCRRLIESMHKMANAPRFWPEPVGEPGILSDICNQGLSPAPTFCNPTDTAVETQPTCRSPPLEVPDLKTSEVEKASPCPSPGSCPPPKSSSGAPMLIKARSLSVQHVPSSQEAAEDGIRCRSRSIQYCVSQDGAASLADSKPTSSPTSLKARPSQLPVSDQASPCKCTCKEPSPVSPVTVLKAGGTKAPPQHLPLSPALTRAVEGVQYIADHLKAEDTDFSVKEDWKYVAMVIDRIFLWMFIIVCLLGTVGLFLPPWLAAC
# T2 sequence (P12390 25-500): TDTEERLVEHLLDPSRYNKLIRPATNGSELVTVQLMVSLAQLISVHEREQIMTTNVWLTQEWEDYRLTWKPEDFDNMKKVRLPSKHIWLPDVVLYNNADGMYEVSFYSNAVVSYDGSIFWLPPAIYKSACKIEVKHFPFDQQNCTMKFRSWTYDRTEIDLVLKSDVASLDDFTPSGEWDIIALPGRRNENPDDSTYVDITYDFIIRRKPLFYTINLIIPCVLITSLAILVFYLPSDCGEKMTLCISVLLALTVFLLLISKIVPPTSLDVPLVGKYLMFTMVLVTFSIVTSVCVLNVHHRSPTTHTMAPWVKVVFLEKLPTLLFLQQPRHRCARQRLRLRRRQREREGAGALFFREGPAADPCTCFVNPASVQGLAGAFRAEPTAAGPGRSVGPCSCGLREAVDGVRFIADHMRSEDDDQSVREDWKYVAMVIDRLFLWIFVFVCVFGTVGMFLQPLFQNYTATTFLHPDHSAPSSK
# T1 sequence (P02710 25-461): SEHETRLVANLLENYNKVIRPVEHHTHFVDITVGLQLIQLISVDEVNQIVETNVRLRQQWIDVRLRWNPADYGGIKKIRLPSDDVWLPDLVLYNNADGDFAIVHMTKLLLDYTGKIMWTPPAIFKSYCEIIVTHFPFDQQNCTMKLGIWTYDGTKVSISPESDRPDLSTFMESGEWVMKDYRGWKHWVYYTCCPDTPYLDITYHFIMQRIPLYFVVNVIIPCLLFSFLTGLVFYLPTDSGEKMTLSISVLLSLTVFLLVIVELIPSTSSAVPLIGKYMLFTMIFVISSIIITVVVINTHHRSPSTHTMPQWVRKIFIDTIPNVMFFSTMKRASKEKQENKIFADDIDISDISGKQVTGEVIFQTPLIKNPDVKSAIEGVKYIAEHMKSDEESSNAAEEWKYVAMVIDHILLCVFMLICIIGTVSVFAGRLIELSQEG
# T1 sequence (P02712 25-493): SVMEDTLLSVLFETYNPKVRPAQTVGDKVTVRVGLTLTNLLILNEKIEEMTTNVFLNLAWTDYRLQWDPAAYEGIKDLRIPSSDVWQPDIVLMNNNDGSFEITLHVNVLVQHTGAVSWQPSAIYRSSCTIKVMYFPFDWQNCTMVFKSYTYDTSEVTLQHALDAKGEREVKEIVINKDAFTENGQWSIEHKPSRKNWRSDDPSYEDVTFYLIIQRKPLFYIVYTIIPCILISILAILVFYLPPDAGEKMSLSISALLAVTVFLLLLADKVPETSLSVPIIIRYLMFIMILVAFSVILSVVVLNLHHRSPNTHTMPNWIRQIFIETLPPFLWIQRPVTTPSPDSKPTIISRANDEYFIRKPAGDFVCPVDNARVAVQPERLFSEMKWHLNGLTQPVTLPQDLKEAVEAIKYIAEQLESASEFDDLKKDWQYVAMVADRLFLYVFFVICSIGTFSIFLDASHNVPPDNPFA
# T1 sequence (P02714 18-506): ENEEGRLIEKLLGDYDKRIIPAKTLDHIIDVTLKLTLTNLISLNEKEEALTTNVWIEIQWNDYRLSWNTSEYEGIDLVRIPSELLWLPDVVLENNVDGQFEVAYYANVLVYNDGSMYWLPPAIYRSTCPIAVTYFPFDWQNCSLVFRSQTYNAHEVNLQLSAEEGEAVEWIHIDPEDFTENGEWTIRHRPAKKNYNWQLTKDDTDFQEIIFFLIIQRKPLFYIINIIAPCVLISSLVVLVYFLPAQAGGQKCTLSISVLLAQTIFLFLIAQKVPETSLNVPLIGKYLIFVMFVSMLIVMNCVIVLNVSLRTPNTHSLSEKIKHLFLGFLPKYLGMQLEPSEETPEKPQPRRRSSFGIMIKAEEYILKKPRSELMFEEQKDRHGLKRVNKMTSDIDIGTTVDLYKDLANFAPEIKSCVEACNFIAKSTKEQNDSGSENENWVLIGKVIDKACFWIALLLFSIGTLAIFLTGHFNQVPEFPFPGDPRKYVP
# T1 sequence (P02718 22-522): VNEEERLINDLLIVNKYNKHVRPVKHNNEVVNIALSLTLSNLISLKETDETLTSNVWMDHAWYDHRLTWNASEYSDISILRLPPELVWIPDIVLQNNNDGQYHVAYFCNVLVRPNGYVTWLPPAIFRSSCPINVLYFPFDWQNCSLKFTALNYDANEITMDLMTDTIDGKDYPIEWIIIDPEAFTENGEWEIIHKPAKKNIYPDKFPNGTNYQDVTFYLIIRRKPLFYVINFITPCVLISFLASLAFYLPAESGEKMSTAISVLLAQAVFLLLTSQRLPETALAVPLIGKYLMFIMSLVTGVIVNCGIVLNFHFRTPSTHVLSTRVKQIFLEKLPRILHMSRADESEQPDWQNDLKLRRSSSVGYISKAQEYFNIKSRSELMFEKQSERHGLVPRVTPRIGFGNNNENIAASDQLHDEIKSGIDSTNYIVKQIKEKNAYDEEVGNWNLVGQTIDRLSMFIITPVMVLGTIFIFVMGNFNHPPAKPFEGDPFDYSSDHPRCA
structure (smiles),measurement,setting,value
"Cc1cccc(C)c1NC(=O)CN1CCCC1=O [nefiracetam, 2-oxo-1-pyrrolidinylacetic acid 2,6-dimethylanilide]",normalized Ca^2+ rise (Δ increase of intensity / base intensity / current amplitude),normal ACh receptors,6.6 ± 1.4
same,effect on calcium-dependent chloride currents induced by stimulation from the endogenous muscarinic ACh receptors (FIG. 2),"[1]; oocyte not expressing ACh receptors, atropine-free Ringer, ACh 100 µM",had no effect
same,effect on chloride ion (Cl^-) currents evoked by Ca^2+ influx through the nACh receptor channels,"[1]; oocytes, data not shown",had no effect
same,paired-pulse facilitation: reaction to first pulse potentiated by the next pulse,[2],≤ 120%
same,current potentiation in mutant ACh receptors lacking PKC phosphorylation sites,[3],exhibited no current potentiation
same,concentration of maximum potentiation of ACh-evoked currents,α4β2 receptor,0.1 µM
same,activity at 1 µM,"α4β2 receptor; 1 h, nefiracetam 1 µM, 60 minutes after treatment, read-out: ACh-evoked currents potentiated, reaching",180%
same,normalized response (%),"α4β2 receptor; ACh 0.1 µM, nefiracetam 1 µM",0%
same,normalized response (%),"α4β2 receptor; ACh 1 µM, nefiracetam 1 µM",2%
same,normalized response (%),"α4β2 receptor; ACh 10 µM, nefiracetam 1 µM",36%
same,normalized response (%),"α4β2 receptor; ACh 100 µM, nefiracetam 1 µM",66%
same,normalized response (%),"α4β2 receptor; ACh 1000 µM, nefiracetam 1 µM",100%
same,activity at 0.0001 µM,"α4β2 receptor; Nefiracetam 0.0001 µM, n = 5 to 8, read-out: % of the original amplitude",100 ± 15.5%
same,activity at 0.001 µM,"α4β2 receptor; Nefiracetam 0.001 µM, n = 5 to 8, read-out: % of the original amplitude",150 ± 13.6%
same,activity at 0.01 µM,"α4β2 receptor; Nefiracetam 0.01 µM, n = 5 to 8, read-out: % of the original amplitude",212 ± 20.5%
same,activity at 0.1 µM,"α4β2 receptor; Nefiracetam 0.1 µM, n = 5 to 8, read-out: % of the original amplitude",225 ± 18.9%
same,activity at 1 µM,"α4β2 receptor; Nefiracetam 1 µM, n = 5 to 8, read-out: % of the original amplitude",161 ± 12.6%
same,activity at 10 µM,"α4β2 receptor; Nefiracetam 10 µM, n = 5 to 8, read-out: % of the original amplitude",156 ± 17.6%
same,currents potentiated to,α4β2 receptor; in the presence of the inactive PKC inhibitory peptide (NP153; iPKCI),169.3%
same,concentration at which potentiation of ACh-evoked currents was observed,α4β2 receptor; lowest effective concentration,≥ 0.0001 µM
same,% of the original amplitude (Ach-evoked current),"α4β2 receptor; treatment as labelled, nefiracetam 1 µM, GF109203X 100 nM, peptides co-expressed, Mean ± SD, n = 6 to 8",160 ± 5.6%
